Assay results: patent US20010025105A1, “Certain substituted 1-aryl-3-piperazine-1'-yl propanones” (Molecular Geriatarics Corporation, priority 1997, published 2001)
Counter-ions that a name gives are not always drawn.

System: TG3 immunoreactivity in OKA treated MSN1a cells
Assay: MSN1a cell culture model, ELISA with TG3 antibody, okadaic acid treated cells
Type: cell-based, human
Conditions: 1 μM OKA, 2 hrs at 37° C., read-out: IC50 for inhibition of TG3 immunoreactivity in OKA treated MSN1a cells
Protocol: This assay can thus be used to determine whether a drug is capable of preventing or intervening in AD by attenuating the production of abnormally phosphorylated paired helical filament epitopes associated with AD. To determine whether a drug is capable of preventing or intervening in AD activity, the MSN1a cells containing tau and associated proteins are treated with OKA capable of greatly increasing immunoreactivity of the MSN1a cells with AD specific monoclonal antibodies. Then, either prior to or concomitantly with OKA treatment, a compound of the present invention is added to the culture. If the compound prevents the induction of the AD epitopes in the MSN1a cells treated with OKA, then it is said to have anti-AD activity. If the AD-specific antibodies are highly reactive with the neuroblastoma cells following OKA treatment in the presence of compound, then the compound is said to be ineffectual against AD.
The MSN1a human neuroblastoma line was subcloned from a population of MSN cells obtained from the laboratory of Dr. Peter Davies (Albert Einstein College of Medicine, New York, N.Y.). Cells were grown and maintained in flasks in RPMI 1640 medium, supplemented with 15% fetal calf serum, 100 U/ml penicillin, 100 U/ml Streptomycin, 0.5 ug/ml fungizone under 7.5% CO2 at 37° C.
Stock solutions of drugs were prepared by dissolving the anhydrous powders to final concentrations of either 10 or 20 mM in 50% aqueous or 100% dimethyl sulfoxide (DMSO), respectively. Working solutions of drugs were prepared by dilution of the stock solutions with Kreb's Ringer in Hepes buffer (KRH) (128 mM NaCl, 5 mM KCl, 2.5 mM CaCl2 1.2 mM MgSO4, 1 mM Na2HPO4, 10 mM dextrose, 20 mM Hepes, pH 7.4). OKA is maintained as a 1 mM stock solution in DMSO prior to dilution to 4 μM in KRH.
MSN cells grown in 225 cm^2 flasks are removed from the incubator, their medium decanted and replaced with 50 ml pre-warmed KRH. The cells are harvested by scraping prior to sedimentation at 1000 rpm for 5 min. The supernatants are discarded and the cell pellets are resuspended, the cells counted and diluted to a density of 2×10^4 cells/[…]. The cells are then plated in a 96 well plate at 50 μl/well and 25 μl of 4 μM OKA and 25 μl of drug are then added to the appropriate wells; the entire 96 well plate is then incubated for 2 hrs at 37° C. Depending on the dilution of drug added, this yields individual wells containing 1 μM OKA, 0-64 μM drug and 2×10^4 cells in 0.26% DMSO in KRH. The incubation is terminated by the addition of 20 μl of 6X extraction buffer and immediate freezing at −80° C. for at least one hr. The 6X extraction buffer contains: 25 mM Tris-HCl, pH 7.6, 150 mM NaCl, 5 mM EDTA, 24 mM β-glycerol phosphate, 10 μg/ml APMSF (4-amidinophenylmethane-sulfonyl flouride), and 2.5 μg/ml each of leupeptin, aprotinin, and pepstatin. The plates are thawed in a 37° C. water bath and 20 μl of cell lysate is added to a replica well in an ELISA plate that already contains 80 μl of coating buffer (15 mM Na2CO3 and 35 mM NaHCO3, pH 9.6). The plates are allowed to coat overnight at 4° C. The plates are washed four times with deionized water and then blocked for 30 min at 37° C. with 200 μl/well pre-warmed 1% bovine serum albumin in 10 mM Tris-HCl, pH 7.4, 150 mM NaCl, 3 mM NaN3 (BSA-TBS). After the blocking solution is removed, 100 μl/well of an appropriate dilution of pre-warmed primary antibody (eg., TG3 or PHF-1) in BSA-TBS is added and incubated at 37° C. for 30 min. Incubation is terninated by washing four times in deionized water at which time 100 μl of an appropriate dilution of pre-warmed secondary antibody (conjugated to alkaline phosphatase) in BSA-TBS is added to each well in the ELISA plate. Incubation is performed for 30 min at 37° C. followed by washing 4 times with deionized water. […] of prewarmed chromogenic substrate (1 mg/mnl p-nitrophenyl phosphate in 10% diethanolamine, 3 mM NaN3, 0.5 mM MgCl2, pH 9.8) is added and the plate incubated for 30 min at 37° C. […]

Structure (SMILES) | IC50 [µM]
O=C(CCN1CCN(Cc2ccccc2)CC1)c1ccc(Br)cc1 [Example 16, 1-(p-Bromophenyl)-3-(4′-benzyl-1′-piperazinyl)-1-propanone dihydrochloride] | 5.2
O=C(CCN1CCN(Cc2ccccc2)CC1)c1ccccc1I [Example 81, 1-o-Iodophenyl-3-(4′-benzyl-1′-piperazinyl)-1-propanone dihydrochloride] | 4.5
O=C(CCN1CCN(Cc2ccc(F)c(F)c2)CC1)c1ccc([N+](=O)[O-])cc1 [Example 55, 1-(p-Nitrophenyl)-3-[4′-(3″,4″-difluorobenzyl)-1′-piperazinyl]-1-propanone dihydrochloride] | 6.3
O=C(CCN1CCN(C(=O)c2ccccc2C(F)(F)F)CC1)c1ccc([N+](=O)[O-])cc1 [Example 39] | 10

System: not given
Assay: not given
Conditions: not given

Structure (SMILES) | melting point
O=C(CCN1CCC(C(=O)c2ccc(F)cc2)CC1)c1csc([N+](=O)[O-])c1 (as salt: hydrochloride) [Example 98, 1-(2″-Nitro-4″-thienyl)-3-(4′-p-fluorobenzoyl-1′-piperidinyl)-1-propanone hydrochloride] | 205 to 206 °C
Cc1c(C(=O)CCN2CCN(Cc3ccccc3)CC2)sc2ccc(Cl)cc12 (as salt: hydrochloride) [Example 82, 1-(5″-Chloro-3″-methylbenzo[b]-2″-thienyl)-3-(4′-benzyl-1′-piperazinyl)-1-propanone dihydrochloride] | 247 °C (dec.)
CS(=O)(=O)Nc1ccc(C(=O)CCN2CCN(Cc3ccccc3)CC2)cc1 (as salt: hydrochloride) [Example 26, 1-[-p-(Methanesulfonamido)phenyl]-3-(4′-benzyl-1′-piperazinyl)-1-propanone dihydrochloride] | 202 to 205 °C
O=C(CCN1CCC(Cc2ccccc2)CC1)c1ccc(Br)s1 (as salt: hydrochloride) [Example 99, 1-(5″-Bromo-2″-thienyl)-3-(4′-benzyl-1′-piperidinyl)-1-propanone hydrochloride] | 205 to 208 °C
O=C(CCN1CCN(Cc2ccccc2)CC1)c1ccc(Sc2ccccc2)cc1 (as salt: hydrochloride) [Example 69, 1-p-Phenylthiophenyl-3-(4′-benzyl-1′-piperazinyl)-3-propanone dihydrochlonde] | 210 °C (dec.)
O=C(CCN1CCN(Cc2ccccc2)CC1)c1ccc2c(c1)OCCO2 (as salt: hydrochloride) [Example 19, 1-(2″,3″-Dihydro-1″,4″-benzodioxan-6″-yl)-3-(4′-benzyl-1′-piperazinyl)-1-propanone dihydrochloride] | 215 °C (dec.)
O=C(CCN1CCN(Cc2ccccc2)CC1)c1ccc2c(c1)CCCC2 (as salt: hydrochloride) [Example 20, 1-(1″,2″,3″,4″-Tetrahydronaphth-6″-yl)-3-(4′-benzyl-1′-piperazinyl)-1-propanone dihydrochloride] | 200 °C (dec.)
COc1ccc(C(=O)CCN2CCN(Cc3ccccc3)CC2)c2ccccc12 (as salt: hydrochloride) [Example 79, 1-(4″-Methoxy-1″-naphthalenyl)-3-(4′-benzyl-1′-piperazinyl)-1-propanone dihydrochloride] | 230 °C (dec.)
Cl.Cl.O=C1c2ccccc2SCC1CN1CCN(Cc2ccccc2)CC1 (centres unmarked) | > 250 °C (dec.)
O=C(CCN1CCN(Cc2ccccc2)CC1)c1ccc(-c2ccccc2)s1 (as salt: hydrochloride) [Example 56, 1-(5″-Phenyl-2″-thienyl)-3-(4′-benzyl-1′-piperazinyl)-1-propanone dihydrochloride] | 224 to 247 °C
O=C(CCN1CCN(Cc2ccccc2)CC1)c1cccn1S(=O)(=O)c1ccccc1 (as salt: hydrochloride) [Example 91, 1-(N-Phenylsulfonylpyrrol-2-yl)-3-(4′-benzyl-1′-piperazinyl)-1-propanone dihydrochloride] | 215 °C (dec.)
O=C(CCN1CCN(Cc2ccccc2)CC1)c1cc2ccccc2o1 (as salt: hydrochloride) [Example 10, 1-(Benzofur-2″-yl)-3-(4′-benzyl-1′-piperazinyl)-1-propanone dihydrochloride] | 255 to 257 °C

Results, then the molecule that gave them:

melting point | Structure (SMILES)
225 °C (dec.) | O=C(CCN1CCN(Cc2ccccc2)CC1)c1ccc2c(c1)Cc1ccccc1-2 (as salt: hydrochloride) [Example 28, 1-(Fluoren-2″-yl)-3-(4′-benzyl-1′-piperazinyl)-1-propanone dihydrochloride]
225 to 226 °C | O=C(CCN1CCN(C(=O)c2c(F)cccc2F)CC1)c1ccc(Br)s1 (as salt: hydrochloride) [Example 62, 1-(5′″-Bromo-2′″-thienyl)-3-[4′-(2″,6″-difluorobenzoyl)-1′-piperazinyl]-1-propanone hydrochloride]
240 °C | O=C(CCN1CCN(C(=O)c2ccc(I)cc2)CC1)c1ccc(N2CCOCC2)cc1 (as salt: hydrochloride) [Example 68, 1-(p-N-Morpholinophenyl)-3-[4′-p-iodobenzoyl)-1′-piperazinyl]-1-propanone dihydrochloride]
133 to 134 °C | O=C(CCN1CCN(Cc2ccccc2)CC1)c1ccc2c(c1)-c1ccccc1-2 [Example 58, 1-(Biphenylen-2″-yl)-3-(4′-benzyl-1′-piperazinyl)-1-propanone]
224 °C (dec.) | O=C(CCN1CCN(Cc2ccccc2)CC1)c1ccc(I)cc1 (as salt: hydrochloride) [Example 1, 1-(piodophenyl)-3-(4′-benzyl-1′-piperazinyl)-1-propanonedihydrochloride]
225 °C (dec.) | O=C(CCN1CCN(Cc2ccccc2)CC1)c1ccc(-c2ccccc2)cc1 (as salt: hydrochloride) [Example 22, 1-p-Biphenyl-3-(4′-benzyl-1′-piperazinyl)-1-propanone dihydrochloride]
183 to 184 °C | O=C(CCN1CCN(C(=O)c2ccccc2F)CC1)c1cccs1 (as salt: hydrochloride) [Example 70, 1-(2″-Thienyl)-3-[4′-(o-fluorobenzoyl)-1′-piperazinyl]-1-propanone hydrochloride]
188 to 189 °C | O=C(CCN1CCN(C(=O)c2sc3ccccc3c2Cl)CC1)c1ccc(Br)s1 (as salt: hydrochloride) [Example 86, 1-(5″-Bromo-2″-thienyl)-3-[4′-(3′″-chlorobenzo[b]-2′″-thienoyl)-1′-piperazinyl]-1-propanone dihydrochloride]
217 to 218 °C | O=C(CCN1CCN(C(=O)c2ccccc2F)CC1)c1ccc([N+](=O)[O-])cc1 (as salt: hydrochloride) [Example 54, 1-(p-Nitrophenyl)-3-(4′-o-fluorobenzoyl-1′-piperazinyl)-1-propanone dihydrochloride]
225 to 227 °C | O=C(CCN1CCN(C(=O)c2c(F)cccc2F)CC1)c1ccc([N+](=O)[O-])cc1 (as salt: hydrochloride) [Example 40, 1-(p-Nitrophenyl)-3-[4′-(2″,6″-difluorobenzoyl)-1′-piperazinyl]-1-propanone hydrochloride]
